Measured values reported in patent US12655130B2 (ASSEMBLY BIOSCIENCES, INC., priority 2020, dated 2026).
Read-outs that look alike come from different tables or passages of the source.

Tested on: HBV viral load (viral production from HepAD38 cells)
Experiment: Activity of test compounds on viral production from HepAD38 cells (viral load by qPCR of HBV core sequence)
Assay type: cell-based
Conditions: viral load lowering, 5 days, qPCR of supernatant, read-out: VL HepAD38 EC50 range
Summary of the method: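 HepAD38 cells seeded at 50,000/well in tetracycline-free medium with 2% FBS, treated 5 days at 37 °C with compounds from 10 μM top concentration. Supernatant HBV DNA quantified by TaqMan qPCR of core sequence against HBV DNA standards, relative to DMSO wells; viability by CellTiter-Glo; EC50/CC50 by four-parameter logistic fit.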

[1] = Hepatitis B virus, HePAD38, 120 h

| SMILES | EC50 [1] [nM] | EC50 [nM] |
| --- | --- | --- |
| Cn1cnc(C2CC3CC(O)(c4cc(N)nn4C)CC3C2)c1C(=O)Nc1ccc(F)c(Cl)c1 (centres unmarked) [Example 51, 4-(5-(3-Amino-1-methyl-1H-pyrazol-5-yl)-5-hydroxyoctahydropentalen-2-yl)-N-(3-chloro-4-fluorophenyl)-1-methyl-1H-imidazole-5-carboxamide] | < 10 | – |
| Cn1cnc(C2CC3CC(O)(c4c(F)c(N)nn4C)CC3C2)c1C(=O)Nc1ccc(F)c(Cl)c1 (centres unmarked) [Example 52, 4-(5-(3-Amino-4-fluoro-1-methyl-1H-pyrazol-5-yl)-5-hydroxyoctahydropentalen-2-yl)-N-(3-chloro-4-fluorophenyl)-1-methyl-1H-imidazole-5-carboxamide] | < 10 | – |
| Cn1cnc(C2CC3CC(O)(c4cc(O)nn4C)CC3C2)c1C(=O)Nc1ccc(F)c(Cl)c1 (centres unmarked) [Example 53, N-(3-Chloro-4-fluorophenyl)-4-(5-hydroxy-5-(3-hydroxy-1-methyl-1H-pyrazol-5-yl)octahydropentalen-2-yl)-1-methyl-1H-imidazole-5-carboxamide] | < 10 | – |
| CC(C)Oc1cc(C2(O)CC3CC(c4ncn(C)c4C(=O)Nc4ccc(F)c(Cl)c4)CC3C2)n(C)n1 (centres unmarked) [Example 54, N-(3-Chloro-4-fluorophenyl)-4-(5-hydroxy-5-(3-isopropoxy-1-methyl-1H-pyrazol-5-yl)octahydropentalen-2-yl)-1-methyl-1H-imidazole-5-carboxamide] | < 10 | – |
| Cn1cnc(C2CC3CC(O)(c4cc(OCC(C)(C)O)nn4C)CC3C2)c1C(=O)Nc1ccc(F)c(Cl)c1 (centres unmarked) [Example 55, N-(3-Chloro-4-fluorophenyl)-4-(5-hydroxy-5-(3-(2-hydroxy-2-methylpropoxy)-1-methyl-1H-pyrazol-5-yl)octahydropentalen-2-yl)-1-methyl-1H-imidazole-5-carboxamide] | < 10 | – |
| CC#Cc1cc(C2(O)CC3CC(c4ncn(C)c4C(=O)Nc4ccc(F)c(Cl)c4)CC3C2)n(C)n1 (centres unmarked) [Example 56, N-(3-Chloro-4-fluorophenyl)-4-(5-hydroxy-5-(1-methyl-3-(prop-1-yn-1-yl)-1H-pyrazol-5-yl)octahydropentalen-2-yl)-1-methyl-1H-imidazole-5-carboxamide] | < 10 | – |
| Cn1cnc(C2CC3CC(O)(c4cc(C#N)nn4C)CC3C2)c1C(=O)Nc1ccc(F)c(Cl)c1 (centres unmarked) [Example 57, N-(3-Chloro-4-fluorophenyl)-4-(5-(3-cyano-1-methyl-1H-pyrazol-5-yl)-5-hydroxyoctahydropentalen-2-yl)-1-methyl-1H-imidazole-5-carboxamide] | < 10 | – |
| CC(=O)c1cc(C2(O)CC3CC(c4ncn(C)c4C(=O)Nc4ccc(F)c(Cl)c4)CC3C2)n(C)n1 (centres unmarked) [Example 58, 4-(5-(3-Acetyl-1-methyl-1H-pyrazol-5-yl)-5-hydroxyoctahydropentalen-2-yl)-N-(3-chloro-4-fluorophenyl)-1-methyl-1H-imidazole-5-carboxamide] | < 10 | – |
| Cn1cnc(C2CC3CC(O)(c4cc(C(C)(C)O)nn4C)CC3C2)c1C(=O)Nc1ccc(F)c(Cl)c1 (centres unmarked) [Example 59, N-(3-Chloro-4-fluorophenyl)-4-(5-hydroxy-5-(3-(2-hydroxypropan-2-yl)-1-methyl-1H-pyrazol-5-yl)octahydropentalen-2-yl)-1-methyl-1H-imidazole-5-carboxamide] | < 10 | – |
| CC(O)c1cc(C2(O)CC3CC(c4ncn(C)c4C(=O)Nc4ccc(F)c(Cl)c4)CC3C2)n(C)n1 (centres unmarked) [Example 60, N-(3-Chloro-4-fluorophenyl)-4-(5-hydroxy-5-(3-(1-hydroxyethyl)-1-methyl-1H-pyrazol-5-yl)octahydropentalen-2-yl)-1-methyl-1H-imidazole-5-carboxamide] | – | < 10 |
| Cn1cnc(C2CC3CC(O)(c4c(F)c(O)nn4C)CC3C2)c1C(=O)Nc1ccc(F)c(Cl)c1 (centres unmarked) [Example 61, N-(3-Chloro-4-fluorophenyl)-4-(5-(4-fluoro-3-hydroxy-1-methyl-1H-pyrazol-5-yl)-5-hydroxyoctahydropentalen-2-yl)-1-methyl-1H-imidazole-5-carboxamide] | < 10 | – |
| Cn1cnc(C2CC3CC(O)(c4c(F)c(OCC(O)C(F)(F)F)nn4C)CC3C2)c1C(=O)Nc1ccc(F)c(Cl)c1 (centres unmarked) [Example 62, N-(3-Chloro-4-fluorophenyl)-4-(5-(4-fluoro-1-methyl-3-(3,3,3-trifluoro-2-hydroxypropoxy)-1H-pyrazol-5-yl)-5-hydroxyoctahydropentalen-2-yl)-1-methyl-1H-imidazole-5-carboxamide] | < 10 | – |
| Cn1cnc(C2CC3CC(O)(c4c(F)c(NCC(C)(C)O)nn4C)CC3C2)c1C(=O)Nc1ccc(F)c(Cl)c1 (centres unmarked) [Example 63, N-(3-Chloro-4-fluorophenyl)-4-(5-(4-fluoro-3-((2-hydroxy-2-methylpropyl)amino)-1-methyl-1H-pyrazol-5-yl)-5-hydroxyoctahydropentalen-2-yl)-1-methyl-1H-imidazole-5-carboxamide] | < 10 | – |
| Cn1cnc(C2CC3CC(O)(c4c(F)c(C#N)nn4C)CC3C2)c1C(=O)Nc1ccc(F)c(Cl)c1 (centres unmarked) [Example 64, N-(3-Chloro-4-fluorophenyl)-4-(5-(3-cyano-4-fluoro-1-methyl-1H-pyrazol-5-yl)-5-hydroxyoctahydropentalen-2-yl)-1-methyl-1H-Imidazole-5-carboxamide] | < 10 | – |
| CC(=O)c1nn(C)c(C2(O)CC3CC(c4ncn(C)c4C(=O)Nc4ccc(F)c(Cl)c4)CC3C2)c1F (centres unmarked) [Example 65, 4-(5-(3-Acetyl-4-fluoro-1-methyl-1H-pyrazol-5-yl)-5-hydroxyoctahydropentalen-2-yl)-N-(3-chloro-4-fluorophenyl)-1-methyl-1H-imidazole-5-carboxamide] | < 10 | – |
| Cn1cnc(C2CC3CC(O)(c4c(F)c(C(C)(C)O)nn4C)CC3C2)c1C(=O)Nc1ccc(F)c(Cl)c1 (centres unmarked) [Example 66, N-(3-Chloro-4-fluorophenyl)-4-(5-(4-fluoro-3-(2-hydroxypropan-2-yl)-1-methyl-1H-pyrazol-5-yl)-5-hydroxyoctahydropentalen-2-yl)-1-methyl-1H-imidazole-5-carboxamide] | < 10 | – |
| CC(CO)Oc1cc(C2(O)CC3CC(c4ncn(C)c4C(=O)Nc4ccc(F)c(Cl)c4)CC3C2)n(C)n1 (centres unmarked) [Example 67, N-(3-Chloro-4-fluorophenyl)-4-(5-hydroxy-5-(3-((1-hydroxypropan-2-yl)oxy)-1-methyl-1H-pyrazol-5-yl)octahydropentalen-2-yl)-1-methyl-1H-imidazole-5-carboxamide] | – | < 10 |
| Cc1c(N)nn(C)c1C1(O)CC2CC(c3ncn(C)c3C(=O)Nc3ccc(F)c(Cl)c3)CC2C1 (centres unmarked) [Example 75, 4-(5-(3-Amino-1,4-dimethyl-1H-pyrazol-5-yl)-5-hydroxyoctahydropentalen-2-yl)-N-(3-chloro-4-fluorophenyl)-1-methyl-1H-imidazole-5-carboxamide] | < 10 | – |
| CCn1nc(N)cc1C1(O)CC2CC(c3ncn(C)c3C(=O)Nc3ccc(F)c(Cl)c3)CC2C1 (centres unmarked) [Example 76] | < 10 | – |
| CC(C)n1nc(N)cc1C1(O)CC2CC(c3ncn(C)c3C(=O)Nc3ccc(F)c(Cl)c3)CC2C1 (centres unmarked) [Example 77, 4-(5-(3-Amino-1-Isopropyl-1H-pyrazol-5-yl)-5-hydroxyoctahydropentalen-2-yl)-N-(3-chloro-4-fluorophenyl)-1-methyl-1H-imidazole-5-carboxamide] | < 10 | – |
